Results: patent US11285127B2, “Compositions and methods for lowering triglycerides without raising LDL-C levels in a subject on concomitant statin therapy” (Amarin Pharmaceuticals Ireland Limited, priority 2013, dated 2022)

Legend:
[1] = test system: patients with fasting triglyceride levels >200 mg/dl and <500 mg/dl despite statin therapy; test: 12-week study: lipoprotein particle size (VLDL, LDL, HDL; nuclear magnetic resonance); format: in vivo, human; details: for LDL Particle Size, Week 12 EP Median (IQR): MITT; for LDL Particle Size, Percent change from Baseline, Median (IQR) / LDL Particle Size, Difference from placebo, Estimated median: Week 12, MITT; for LDL Particle Size, Difference from placebo, Estimated median: difference in percent change
Description: (§1) Parameters (a)-(z) can be measured in accordance with any clinically acceptable methodology. For example, triglycerides, total cholesterol, HDL-C and fasting blood sugar can be sample from serum and analyzed using standard photometry techniques. VLDL-TG, LDL-C and VLDL-C can be calculated or determined using serum lipoprotein fractionation by preparative ultracentrifugation and subsequent quantitative analysis by refractometry or by analytic ultracentrifugal methodology. Apo A1, Apo B and hsCRP can be determined from serum using standard nephelometry techniques. Lipoprotein (a) can be determined from serum using standard turbidimetric immunoassay techniques. LDL particle number and particle size can be determined using nuclear magnetic resonance (NMR) spectrometry. Remnants lipoproteins and LDL-phospholipase A2 can be determined from EDTA plasma or serum and serum, respectively, using enzymatic immunoseparation techniques. Oxidized LDL, intercellular adhesion molecule-1 and interleukin-2 levels can be determined from serum using standard enzyme immunoassay techniques. These techniques are described in detail in standard textbooks, for example Tietz Fundamentals of Clinical Chemistry, 6th Ed. (Burtis, Ashwood and Borter Eds.), WB Saunders Company.
(§2) A multi-center, placebo-controlled, randomized, double-blind, 12-week study was performed to evaluate the efficacy and safety of >96% E-EPA in patients with fasting triglyceride levels >200 mg/dl and <500 mg/dl despite statin therapy (the mean of two qualifying entry values needed to be >185 mg/dl and at least one of the values needed to be >200 mg/dl). The primary objective of the study was to determine the efficacy of >96% E-EPA 2 g daily and 4 g daily, compared to placebo, in lowering fasting TG levels in patients with high risk for cardiovascular disease and with fasting TG levels 200 mg/dl and <500 mg/dl, despite treatment to LDL-C goal on statin therapy.
(§3) The secondary objectives of this study were the following: • 1. To determine the safety and tolerability of >96% E-EPA 2 g daily and 4 g daily; • 2. To determine the effect of >96% E-EPA on lipid and apolipoprotein profiles including total cholesterol (TC), non-high-density lipoprotein cholesterol (non-HDL-C), low density lipoprotein cholesterol (LDL-C), high density lipoprotein cholesterol (HDL-C), and […]; • 3. To determine the effect of >96% E-EPA on lipoprotein associated phospholipase A2 (Lp-PLA2) from baseline to week 12; • 4. To determine the effect of >96% E-EPA on low-density lipoprotein (LDL) particle number and size; • 5. To determine the effect of >96% E-EPA on oxidized LDL; • 6. To determine the effect of >96% E-EPA on fasting plasma glucose (FPG) and hemoglobin A1c (HbA1c); • 7. To determine the effect of >96% E-EPA on insulin resistance; • 8. To determine the effect of >96% E-EPA on high-sensitivity C-reactive protein (hsCRP); • 9. To determine the effects of >96% E-EPA 2 g daily and 4 g daily on the incorporation of fatty acids into red blood cell membranes and into plasma phospholipids; • 10. To explore the relationship between baseline fasting TG levels and the reduction in fasting TG levels; and • 11. To explore the relationship between changes of fatty acid concentrations in plasma and red blood cell membranes, and the reduction in fasting TG levels.
(§4) The primary efficacy variable for the double-blind treatment period was percent change in TG from baseline to Week 12 endpoint. […]

[2] = test system: patients with fasting triglyceride levels >200 mg/dl and <500 mg/dl despite statin therapy; test: 12-week study: lipoprotein associated phospholipase A2 (Lp-PLA2); format: in vivo, human; details: MITT; for Lp-PLA2 Percent change from Baseline Median (IQR): Week 12 endpoint; for Lp-PLA2 Difference from placebo Estimated median: percent change from baseline to Week 12 endpoint
Description: as §1, §2, §3, §4

[3] = 2 g/day E-EPA (n = 221), 12 weeks
[4] = 2 g/day E-EPA (n = 222), 12 weeks
[5] = 2 g/day, 12 weeks, Hodges-Lehmann median
[6] = 4 g/day E-EPA (n = 215), 12 weeks
[7] = 4 g/day E-EPA (n = 216), 12 weeks
[8] = 4 g/day, 12 weeks, Hodges-Lehmann median, listed as E-EPA
[9] = IPE 4 g/day (n = 215), 12 weeks
[10] = IPE 4 g/day (n = 216), 12 weeks
[11] = IPE 4 g/day vs placebo, 12 weeks, Hodges-Lehmann median

Q: What does the source list for `CC/C=C\C/C=C\C/C=C\C/C=C\C/C=C\CCCC(=O)OCC` [AMR101, ethyl eicosapentaenoate]?
A: LDL particle size, % Δ from baseline (median) [1, 3]: +0.5%; LDL particle size, End (median) [1, 3]: 20.0 nm; HDL particle size, % Δ from baseline (median) [1, 4]: 0.0%; HDL particle size, End (median) [1, 4]: 8.6 nm; VLDL particle size, % Δ from baseline (median) [1, 4]: −5.0%; VLDL particle size, End (median) [1, 4]: 53.2 nm; HDL particle size, Placebo-Adjusted Median Change from Baseline, 2 g/d [1, 5]: 0.0%; LDL particle size, Placebo-Adjusted Median Change from Baseline, 2 g/d [1, 5]: +0.5%; VLDL particle size, Placebo-Adjusted Median Change from Baseline, 2 g/d [1, 5]: −4.8%; LDL particle size, % Δ from baseline (median) [1, 6]: +0.5%; LDL particle size, End (median) [1, 6]: 20.0 nm; HDL particle size, % Δ from baseline (median) [1, 7]: −1.1%; HDL particle size, End (median) [1, 7]: 8.6 nm; VLDL particle size, % Δ from baseline (median) [1, 7]: −8.1%; VLDL particle size, End (median) [1, 7]: 51.2 nm; HDL particle size, Placebo-Adjusted Median Change from Baseline, 4 g/d [1, 8]: −1.2%; LDL particle size, Placebo-Adjusted Median Change from Baseline, 4 g/d [1, 8]: +0.5%; VLDL particle size, Placebo-Adjusted Median Change from Baseline, 4 g/d [1, 8]: −7.7%; LDL Particle Size, Week 12 EP Median (IQR) ([1]; AMR101 2g/d + statin, n 221): 20.0 (0.6) nm; LDL Particle Size, Percent change from Baseline, Median (IQR) ([1]; AMR101 2g/d + statin): 0.5 (2.5) %; LDL Particle Size, Difference from placebo, Estimated median ([1]; AMR101 2g/d + statin): 0.5%; LDL Particle Size, Week 12 EP Median (IQR) ([1]; AMR101 4g/d + statin, n 215): 20.0 (0.6) nm; LDL Particle Size, Percent change from Baseline, Median (IQR) ([1]; AMR101 4g/d + statin): 0.5 (2.5) %; LDL Particle Size, Difference from placebo, Estimated median ([1]; AMR101 4g/d + statin): 0.5%; LDL particle size, Change From Baseline, % (median) [1, 9]: 0.5%; LDL particle size, End of Treatment (median) [1, 9]: 20.0 nm; HDL particle size, Change From Baseline, % (median) [1, 10]: −1.1%; HDL particle size, End of Treatment (median) [1, 10]: 8.6 nm; VLDL particle size, Change From Baseline, % (median) [1, 10]: −8.1%; VLDL particle size, End of Treatment (median) [1, 10]: 51.2 nm; HDL particle size, Median Change From Baseline IPE 4 g/day vs Placebo, % [1, 11]: −1.2%; LDL particle size, Median Change From Baseline IPE 4 g/day vs Placebo, % [1, 11]: 0.5%; VLDL particle size, Median Change From Baseline IPE 4 g/day vs Placebo, % [1, 11]: −7.7%; Lp-PLA2 Week 12 EP Median (IQR) ([2]; AMR101 2 g/d + statin): 183.5 (57.5) ng/mL; Lp-PLA2 Percent change from Baseline Median (IQR) ([2]; AMR101 2 g/d + statin): −1.8 (23.1) %; Lp-PLA2 Difference from placebo Estimated median ([2]; AMR101 2 g/d + statin): −8.0%; Lp-PLA2 Week 12 EP Median (IQR) ([2]; AMR101 4 g/d + statin): 160.0 (57.0) ng/mL; Lp-PLA2 Percent change from Baseline Median (IQR) ([2]; AMR101 4 g/d + statin): −12.8 (18.5) %; Lp-PLA2 Difference from placebo Estimated median ([2]; AMR101 4 g/d + statin): −19.0%
